How the values were obtained:
[1] = tested on: rat brain (BBB); experiment: Evans Blue accumulation in rat brain after alternating electric fields; type: in vivo
Text: A set of in vivo experiments on rats was also run to quantify the increase in vessel permeability caused by exposure to the alternating electric fields. These experiments used Evans Blue (EB) dye, which is an azo dye that has a very high affinity for serum albumin (molecule size ˜69 kDa). Because of its large molecule size, serum albumin will ordinarily not be able to get past the BBB.
This was accomplished by shaving each rat's head, positioning a first pair of capacitively coupled electrodes on the top and bottom of the rat's head, and positioning a second pair of capacitively coupled electrodes on the left and right sides of the rat's head. A 100 kHz AC voltage was then applied between the top and bottom electrodes for 1 second, followed by a 100 kHz AC voltage applied between the right and left electrodes for 1 second, in a repeating sequence.
Under the conditions indicated in Table 1 and for the times indicated on Table 1, EB was injected intravenously into the tail vein under anesthesia (Once injected, EB immediately binds to Albumin), and the EB was allowed to circulate for 2 hours in all cases. The following steps were then performed: (a) intracardiac perfusion with saline; (b) brains are sliced in four pieces with a brain slicer; (c) pieces were photographed to localize staining and weighted; (d) EB extraction after tissue homogenization with TCA 50% (1:3) and centrifuge and (e) EB quantification at 610 nm. Results are given as μg EB per g tissue.
During the experiment, two animals from group 2 and one animal from group 4 were excluded (disrupted treatment, failure to inject EB into the tail vein). There were no differences between the animals treated with alternating electric fields (groups 1 and 2) and therefore these animals were grouped together. Similarly, there were no differences between sham heat and control animals (groups 3 and 4) and therefore these animals were grouped together.
EB accumulation in these four specific sections was then measured. In addition, a computer simulation was performed to determine the field strength in each of these four sections. […]

[2] = tested on: rat brain (BBB); experiment: DCE-MRI contrast agent accumulation in rat brain; type: in vivo
Experimental: Yet another set of in vivo experiments was performed using Dynamic Contrast Enhanced MRI (DCE-MRI) with intravenous injection of Gadolinium contrast agent (Gd-DTPA, Magnetol, MW 547). In these experiments, test rats were treated with 100 kHz alternating electric fields for 72 h, and control rats were not treated with alternating electric fields for the same period of time. After this 72 h period, the alternating electric field was turned off, the rats were anesthetized, and a series of 60 T1w MRI scans (each of the scans having a duration of 28 seconds) was acquired. The gadolinium contrast agent was injected into the rat's tail vein during the 7th of these 60 scans.
The image analysis for each rat included (1) determining a baseline for each voxel by calculating the mean of the first six T1w MRI scans for each voxel (i.e., the scans prior to the injection of the gadolinium); (2) computing voxel by voxel, the percent signal change (i.e., gadolinium accumulation) over time relative to the baseline; (3) segmenting the brain into anterior, middle, and posterior segments; (4) generating for each of the three segments the mean percent signal change with respect to the baseline over all the voxels in the respective segment and then (5) averaging 4 consecutive time points (i.e. 4 scans) together. Finally, the data from all of the rats within any given group were averaged together. […]

[3] = 100 kHz fields 72 h vs sham heat/control, EB i.v., circulated 2 hours, measured as μg EB per g tissue, FIG. 5

Compound	average EB accumulation in the rat brain, averaged over all four sections 1-4 ([1]; 100 kHz fields 72 hours vs sham heat/control, p<0.05, FIG. 6)	EB accumulation, more posterior sections (3, 4) [1, 3]	EB accumulation, sections 1, 2 (frontal cerebrum) [1, 3]	contrast agent accumulation in the brain tissue (percent signal change) ([2]; 100 kHz fields 72 h (n=6) vs control rats (n=3), i.v., FIG. 7)	contrast agent accumulation in the brain tissue (percent signal change) after recovery ([2]; 72 hours fields followed by 96 hours without fields (n=7) vs control+96 h (n=3))
Cc1cc(-c2ccc(/N=N/c3ccc4c(S(=O)(=O)O)cc(S(=O)(=O)O)c(N)c4c3O)c(C)c2)ccc1/N=N/c1ccc2c(S(=O)(=O)O)cc(S(=O)(=O)O)c(N)c2c1O [EB, Evans Blue]	higher accumulation	smaller increase (that was not statistically significant)	statistically significant increase		
O=C([O-])CN(CCN(CC(=O)[O-])CC(=O)O)CCN(CC(=O)[O-])CC(=O)O.[Gd+3] [contrast agent, Gd-DTPA]				significantly higher	not significantly different

Source: patent US11400269B2, “Using alternating electric fields to increase permeability of the blood brain barrier” (Novocure GmbH, priority 2018, dated 2022)
